Measurements as given in article PMC5537347, “A short D-enantiomeric antimicrobial peptide with potent immunomodulatory and antibiofilm activity against multidrug-resistant Pseudomonas aeruginosa and Acinetobacter baumannii” (Scientific Reports, 2017).
Converted amounts (≈) assume the structure as drawn. Like-named read-outs stand apart in the source and are kept apart here.

Legend:
[1] = tested on: colistin-resistant P. aeruginosa isolated from cystic fibrosis patients
Text: (§1) The broth microdilution technique was utilized to assess the MIC of designed peptides according to the guidelines of the Clinical and Laboratory Standards Institute (CLSI)[37].

[2] = tested on: P. aeruginosa and A. baumannii isolates
Text: as §1

[3] = tested on: A. baumannii ATCC BAA-1605 biofilm; test: Disruption of established biofilms, microtiter dish crystal violet assay; format: cell-based; conditions: mature (24 hour) biofilm
Description: (§2) Figure 1 Efficacy of peptides on established biofilms of P. aeruginosa PAO1 and A. baumannii ATCC BAA-1605. […] After incubation, wells were washed and biofilms were stained with 0.5% (w/v) crystal violet for 30 minutes. The dye was solubilized with ethanol (95%) and the optical density (595 nm) of the biofilm mass was measured. Experiments were repeated twice independently and the average values are reported.
(§3) To examine the peptides’ ability to disrupt bacterial biofilms, the microtiter dish biofilm formation assay was employed[41]–[43].

[4] = tested on: P. aeruginosa PAO1 biofilm; test: as above; format: cell-based; conditions: for biofilm mass disrupted: mature (24 hour) biofilm, 24 hours at 37 °C, crystal violet OD 595 nm
Description: as §2, §3

human red blood cells = test: Hemolysis assay; format: cell-based; conditions: for HC50: red cells of human
Description: Next, we assessed the hemolytic activity of the peptides on human red blood cells (RBCs).
Peptides were assayed for hemolytic activity against human red blood cells, as described previously.

P. aeruginosa PAO1 [5] = test: MIC after treatment with proteases; format: cell-based; conditions: 50 mM Tris-HCl pH 7.4, 37 °C, four hours
Description: To examine the ability of peptides to resist proteolytic digestion by mammalian and bacterial proteases, RR4 and D-RR4 were incubated with trypsin or proteinase K at a molar ratio of 500: 1 (peptide: enzyme), respectively, in digestion buffer (50 mM Tris–HCl, pH 7.4) at 37 °C for four hours, as described previously.

[6] = tested on: intracellular P. aeruginosa PAO1; format: cell-based; conditions: PAO1, 24 h, 8
Description: (§4) Figure 2 Intracellular antibacterial activity of peptides in infected murine macrophage cells (J774A.1). […] Statistical analysis was calculated using one-way ANOVA, with post hoc Tukey’s multiple comparisons test. P < 0.05 was considered significant. One asterisk (*) indicates significance from the negative control. Results are expressed as means from three biological replicates ± standard deviation.
(§5) In order to assess the peptides’ ability to kill intracellular bacteria, murine macrophages (J774A.1) were infected, as described in previous studies[31]–[33], [42], [48]–[51]. Briefly, J774A.1 cells were seeded and incubated as described above for the toxicity assessment. Following incubation, cells were infected with either P. aeruginosa PAO1 or A. baumannii ATCC 19606 (multiplicity of infection 100:1) in DMEM + 10% FBS for two hours. After infection, the wells were washed with 200 µL of media containing gentamicin (50 µg/ml) and further incubated for 30 minutes with gentamicin to kill extracellular bacteria. […] Medium alone was used as a negative control. After incubation, the media was aspirated and washed twice with PBS to remove any residual test agent. Next, 100 µL of PBS containing 0.01% triton X-100 was added to lyse the J774 cells. Subsequently, bacteria were diluted and plated on TSA plates. Plates were incubated at 37 °C for 16 hours. After incubation, bacteria were enumerated and analyzed. The experiment was repeated twice. The average percent reduction of bacterial growth for each treatment regimen has been reported.

[7] = tested on: intracellular A. baumannii ATCC 19606; format: cell-based; conditions: ATCC 19606, 24 h, 8
Description: as §4, §5

[8] = tested on: murine macrophages (J774.1A); test: Cytotoxicity, MTS assay; conditions: for EC50: 24 h
Description: (§6) A significant limitation for translating AMPs into clinical applications is their toxicity to host (mammalian) cells. Herein, we evaluated the cytotoxic effects of our peptide constructs against murine macrophages (J774.1A) and human keratinocytes (HaCaT cells), via the MTS assay.
(§7) The peptides were assayed for potential in vitro toxicity against human keratinocytes (HaCaT) and murine macrophage cells (J774A.1), as described before, with the following modifications. Cells were treated with peptides at different concentrations for 24 hours. The therapeutic index of the peptides was calculated as the ratio of mammalian EC50 (the concentration of peptide that inhibited growth of 50% of the mammalian cells) to the MIC50 of peptides against bacteria.

[9] = tested on: human keratinocytes (HaCaT cells); test: Cytotoxicity, MTS assay; conditions: for EC50: 24 h
Description: as §6, §7

[10] = tested on: C. elegans strain glp-4;sek 1; test: Toxicity of peptides in uninfected C. elegans; format: in vivo, Caenorhabditis elegans; conditions: worms grown four days with peptide; D-RR4 and colistin at 8 × MIC
Description: To test the efficacy of the synthetic peptides to protect against infections in vivo, we utilized a C. elegans model of bacterial infection. This model has been used extensively for early-stage evaluation of promising antimicrobials, [35], [36]. Initially, the lethal dose of D-RR4 against uninfected nematodes was determined.
(A) Evaluation of toxicity of peptides in Caenorhabditis elegans. C. elegans strain glp-4;sek 1 was grown for four days in the presence of peptides at different concentrations. Worms were monitored daily and the live worms were counted. Results are expressed as a Kaplan-Meier survival curve. (B) Evaluation of antimicrobial activity of peptides to reduce the bacterial CFU inside infected Caenorhabditis elegans. C. elegans strain glp-4; sek 1 were infected with P. aeruginosa PAO1, colistin-resistant P. aeruginosa 1109, or A. baumannii ATCC BAA-1605. […] After treatment, worms were lysed and bacteria were counted. One asterisk (*) indicates significant difference with the negative control. Two asterisks (**) indicates significant difference with the monotherapy treatment (P < 0.05). Results are expressed as means from three biological replicates ± standard deviation. (C) Efficacy of peptides in a Caenorhabditis elegans model of bacterial infection. […] Worms were monitored daily and the live worms were counted. Results are expressed as a Kaplan-Meier survival curve. C. elegans receiving no treatment served as a negative control.

P. aeruginosa PAO1 [11] = test: Inner (cytoplasmic) membrane permeabilization assay (propidium iodide); format: cell-based; conditions: D-RR4 5 × and 10 × MIC, LL-37 10 × MIC
Description: Damage of the bacterial inner (cytoplasmic) membrane by peptides was monitored by measuring the fluorescence intensity of P. aeruginosa PAO1 combined with propidium iodide and then subsequently treated with D-RR4.
Damage of the bacterial inner (cytoplasmic) membrane after exposure to peptides was evaluated using propidium iodide, as described elsewhere[47].
Data are presented as means ± standard error of the means
indicated by propidium iodide fluorescence.
Each experiment was performed in duplicate, and the
values represent means ± standard deviation.

A. baumannii = format: cell-based
[12] = colistin-resistant isolated from cystic fibrosis patients
[13] = colistin-resistant isolates of Table 3

CC[C@H](C)[C@H](NC(=O)[C@H](CCCNC(=N)N)NC(=O)[C@H](CCCNC(=N)N)NC(=O)[C@H](CC(C)C)NC(=O)[C@H](Cc1c[nH]c2ccccc12)NC(=O)[C@H](C)NC(=O)[C@H](CCCCN)NC(=O)[C@@H](NC(=O)[C@H](CCCNC(=N)N)NC(=O)[C@H](CCCNC(=N)N)NC(=O)[C@H](CC(C)C)NC(=O)[C@@H](N)Cc1c[nH]c2ccccc12)[C@@H](C)CC)C(=O)N[C@@H](CCCCN)C(=O)N[C@@H](C)C(=O)O [RR4]
MIC50 [1, 12]: 8 µM (≈ 14.9 µg/mL)
MIC90 [1, 12]: 32 µM (≈ 59.7 µg/mL)
MIC50 [2]: 4 µM (≈ 7.47 µg/mL)
MIC90 [2]: 8 µM (≈ 14.9 µg/mL)
improvement in the MIC over RR ([2]; MIC50 and MIC90): 16 fold
biofilm-disrupting activity [3]: concentration-dependent activity
biofilm mass reduced ([4]; 0.5× to 1 × MIC, respectively): 20–35%
biofilm mass disrupted ([4]; 4 × MIC): more than 31%
biofilm mass disrupted ([4]; 8 × MIC): > 39%
biofilm mass disrupted ([4]; 16 × MIC): > 41%
biofilm mass disrupted ([4]; 32 × MIC): > 61%
Therapeutic index (TI) RBCs (human red blood cells): 64
HC50 (human red blood cells): 256 µM
MIC (P. aeruginosa PAO1 [5]; after Proteinase K 1:500 (peptide:enzyme 500:1)): > 64 µM
MIC (P. aeruginosa PAO1 [5]; after Trypsin 1:500 (peptide:enzyme 500:1)): > 64 µM
intracellular bacteria killed [6]: 14.60% ± 5.50
intracellular bacteria killed [7]: 25.00% ± 8.90
EC50 [8]: 64 µM
EC50 [9]: 128 µM

CC[C@@H](C)[C@@H](NC(=O)[C@@H](CCCNC(=N)N)NC(=O)[C@@H](CCCNC(=N)N)NC(=O)[C@@H](CC(C)C)NC(=O)[C@@H](Cc1c[nH]c2ccccc12)NC(=O)[C@@H](C)NC(=O)[C@@H](CCCCN)NC(=O)[C@H](NC(=O)[C@@H](CCCNC(=N)N)NC(=O)[C@@H](CCCNC(=N)N)NC(=O)[C@@H](CC(C)C)NC(=O)[C@H](N)Cc1c[nH]c2ccccc12)[C@H](C)CC)C(=O)N[C@H](CCCCN)C(=O)N[C@H](C)C(N)=O [D-RR4]
MIC50 [1, 12]: 4 µM (≈ 7.46 µg/mL)
MIC90 [1, 12]: 16 µM (≈ 29.8 µg/mL)
MIC50 [2]: 2 µM (≈ 3.73 µg/mL)
MIC90 [2]: 4 µM (≈ 7.46 µg/mL)
MIC against all tested bacterial strains [2]: 2 to 8 µM
toxicity to uninfected worms [10]: not toxic
Therapeutic index (TI) RBCs (human red blood cells; HC50 over MIC50): 128
HC50 (human red blood cells): 256 µM
intracellular bacteria killed [6]: 96.00% ± 1.15
intracellular bacteria killed [7]: 100.00% ± 0.00
EC50 [8]: 64 µM
Therapeutic index (TI) ([8]; EC50 (J774.1) over MIC50, 512 µM used where no cytotoxicity at […]): 32
EC50 [9]: 64 µM
Therapeutic index (TI) ([9]; EC50 (HaCaT) over MIC50, 512 µM used where no cytotoxicity at […]): 32

CC[C@H](C)[C@H](NC(=O)[C@H](CCCCN)NC(=O)[C@H](CCC(=O)O)NC(=O)[C@H](CCCCN)NC(=O)[C@H](CO)NC(=O)[C@H](CCCCN)NC(=O)[C@H](CCCNC(=N)N)NC(=O)[C@H](Cc1ccccc1)NC(=O)[C@H](Cc1ccccc1)NC(=O)[C@H](CC(=O)O)NC(=O)CNC(=O)[C@H](CC(C)C)NC(=O)[C@@H](N)CC(C)C)C(=O)NCC(=O)N[C@@H](CCCCN)C(=O)N[C@@H](CCC(=O)O)C(=O)N[C@@H](Cc1ccccc1)C(=O)N[C@@H](CCCCN)C(=O)N[C@@H](CCCNC(=N)N)C(=O)N[C@H](C(=O)N[C@H](C(=O)N[C@@H](CCC(N)=O)C(=O)N[C@@H](CCCNC(=N)N)C(=O)N[C@H](C(=O)N[C@@H](CCCCN)C(=O)N[C@@H](CC(=O)O)C(=O)N[C@@H](Cc1ccccc1)C(=O)N[C@@H](CC(C)C)C(=O)N[C@@H](CCCNC(=N)N)C(=O)N[C@@H](CC(N)=O)C(=O)N[C@@H](CC(C)C)C(=O)N[C@H](C(=O)N1CCC[C@H]1C(=O)N[C@@H](CCCNC(=N)N)C(=O)N[C@H](C(=O)N[C@@H](CCC(=O)O)C(=O)N[C@@H](CO)C(=O)O)[C@@H](C)O)C(C)C)[C@@H](C)CC)C(C)C)[C@@H](C)CC [LL-37, reference compound]
MIC50 [1, 13]: 64 µM (≈ 288 µg/mL)
MIC90 [1, 13]: >128 µM
MIC ([1]; strain 1015): >128 µM
MIC ([1]; strain 1016): >128 µM
MIC ([1]; strain 1017): >128 µM
MIC ([1]; strain 1020): 32 µM (≈ 144 µg/mL)
MIC ([1]; strain 1109): 64 µM (≈ 288 µg/mL)
MIC ([1]; strain 1125): 128 µM (≈ 575 µg/mL)
MIC ([1]; strain 1131): 16 µM (≈ 71.9 µg/mL)
MIC ([1]; strain 1133): 32 µM (≈ 144 µg/mL)
MIC ([1]; strain 1571): 16 µM (≈ 71.9 µg/mL)
MIC ([1]; strain 1603): 32 µM (≈ 144 µg/mL)
MIC ([1]; strain 16011): >128 µM
MIC50 ([2]; MIC that inhibited growth of 50% of all isolates (Table 2)): 4 µM (≈ 18 µg/mL)
MIC90 ([2]; MIC that inhibited growth of 90% of all isolates (Table 2)): 32 µM (≈ 144 µg/mL)
propidium iodide fluorescence (inner membrane damage) (P. aeruginosa PAO1 [11]): rapid and significant increase in fluorescence
MIC (A. baumannii; strain ATCC 19606): 2 µM (≈ 8.99 µg/mL)
MIC (A. baumannii; strain ATCC BAA-747): 8 µM (≈ 35.9 µg/mL)
MIC (A. baumannii; strain ATCC BAA-1605): 4 µM (≈ 18 µg/mL)
MIC (A. baumannii; strain NR-9667): 4 µM (≈ 18 µg/mL)
MIC (A. baumannii; strain NR-13374): 4 µM (≈ 18 µg/mL)
MIC (A. baumannii; strain NR-13375): 4 µM (≈ 18 µg/mL)
MIC (A. baumannii; strain NR-13382): 4 µM (≈ 18 µg/mL)
MIC (A. baumannii; strain NR-17777): 4 µM (≈ 18 µg/mL)
MIC (A. baumannii; strain NR-17778): 4 µM (≈ 18 µg/mL)
MIC (A. baumannii; strain NR-17780): 4 µM (≈ 18 µg/mL)
MIC (A. baumannii; strain NR-17783): 4 µM (≈ 18 µg/mL)
MIC (A. baumannii; strain NR-17784): 4 µM (≈ 18 µg/mL)
MIC (A. baumannii; strain NR-17785): 4 µM (≈ 18 µg/mL)
MIC (A. baumannii; strain NR-17786): 4 µM (≈ 18 µg/mL)
MIC (A. baumannii; strain NR-19298): 2 µM (≈ 8.99 µg/mL)
MIC (A. baumannii; strain NR-19299): 8 µM (≈ 35.9 µg/mL)
